Measurements reported in US7317028B2, “Cell differentiation inducer” (Schering Aktiengesellschaft, priority 1996, dated 2008).

Experiments:
A2780 cells = test: Test for induction of differentiation in A2780 cells (ALP activity, ALPmin); format: cell-based, human; conditions: for minimal effective concentration: Homo sapiens, 72 h, A2780 cells, 3 days incubation, minimum concentration of the drug inducing increase of ALP activity
Outline: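 A2780 cells seeded at 15,000/well, test compound added in serial dilution the next day. ALP reaction stopped with 3N NaOH and absorbance read at 405 nm; ALPmin is the lowest concentration raising ALP activity.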

[1] = system: Murine myeloid leukemia cells WEHI-3; test: Antitumor test, life prolongation in mice inoculated with WEHI-3 cells (T/C); format: in vivo, Balb/C mouse; conditions: oral once a day Day 1 to 4 and Day 7 to 11, ratio of survival days to control
Text: Murine myeloid leukemia cells WEHI-3 (1 to 3×10^6 cells) were intraperitoneally inoculated to a Balb/C mouse, and administration of a test compound was initiated on the next day. The day was Day 1 and subsequently the drug was orally administered once a day in Day 1 to 4 and in Day 7 to 11. Survival days after inoculation were observed, which were used to calculate the ratio of the survival days for the test coompound group to those for the control group (T/C, %). The ratio was used to evaluate a life prolongation effect.

Row | melting point | SMILES | differentiation-inducing activity (A2780 cells) | minimal effective concentration (A2780 cells) [µM] | T/C ([1]; Dose 32 μmol/kg) [%] | T/C ([1]; Dose 130 μmol/kg) [%]
1 | 154 to 155 °C | Nc1ccccc1NC(=O)c1ccc(CNC(=O)COc2cccnc2)cc1 [Example 46, N-(2-aminophenyl)-4-[N-(pyridin-3-yl)oxyacetylaminomethyl]benzamide] | high | 0.1 | 141 | –
2 | – | Nc1ccccc1NC(=O)c1ccc(CNC(=O)OCc2cccnc2)cc1 [Example 48, N-(2-aminophenyl)-4-[N-(pyridin-3-yl)methoxycarbonylaminomethyl]benzamide] | high | 0.1 | – | 190
3 | – | Nc1ccccc1NC(=O)c1ccc(NC(=O)COCc2cccnc2)cc1 [Example 130, N-(2-aminophenyl)-4-[(pyridin-3-yl)methoxyacetylamino]benzamide] | – | 0.03 | – | 189
4 | 212 to 215 °C (dec.) | Nc1ccccc1NC(=O)c1ccc(NC(=O)COc2ccc([N+](=O)[O-])cc2)cc1 [Example 134, N-(2-aminophenyl)-4-[N-(4-nitrophenoxyacetyl)amino]benzamide] | – | 3 | – | –
5 | 181 to 183 °C | Cl.Nc1ccccc1NC(=O)c1ccc(-n2cc(COCc3ccccc3)oc2=O)cc1 [Example 138, N-(2-aminophenyl)-4-(5-benzyloxymethyl-1,3-oxazolin-2-on-3-yl)benzamide hydrochloride] | – | 1 | – | –
6 | 160 to 164 °C (dec.) | Nc1ccccc1NC(=O)c1ccc(-n2cc(COCc3cccnc3)oc2=O)cc1 [Example 140, N-(2-aminophenyl)-4-[5-(pyridin-3-yl)methyloxymethyl-1,3-oxazolin-2-on-3-yl]benzamide] | – | 0.3 | – | –
7 | 230 °C (dec.) | Nc1ccccc1NC(=O)c1ccc(-n2cc(COc3cccc([N+](=O)[O-])c3)oc2=O)cc1 [Example 141, N-(2-aminophenyl)-4-[5-(3-nitrophenoxy)methyl-1,3-oxazolin-2-on-3-yl]benzamide] | – | 1 | – | –
8 | 172 to 174 °C | Nc1ccccc1NC(=O)c1ccc(-n2cc(COCc3ccccn3)oc2=O)cc1 [Example 142, N-(2-aminophenyl)-4-[5-(pyridin-2-yl)methyloxymethyl-1,3-oxazolin-2-on-3-yl]benzamide] | – | 0.1 | – | –
